Reference: PubChem BioAssay AID2305 (GlaxoSmithKline (GSK), 2010)
Several values for one entry are separate records, joined by “and”; a condition that tells them apart may be missing. Identical values can stand only once.

Test system: P. falciparum 3D7 growth, pLDH absorbance
Assay: P. falciparum 3D7 growth inhibition, dose response, strain 3D7 (AID 2305)

SMILES | IC50
N=c1ccn(CC(=NO)c2ccc(Cl)c(Cl)c2)cc1 | 940 nM
CCNC(=NCc1ccccc1)NCCCCCCNC(=NCc1ccccc1)NCC | 700 nM
O=C(/C=C/c1ccc(Cl)c(Cl)c1)NCCCCCN1CCC(CCNC(=O)Cc2ccc(Cl)cc2)CC1 | 1160 nM
O=C(Nc1ccc([N+](=O)[O-])cc1O)Nc1ccccc1Oc1ccccc1 | 930 nM
CS(=O)(=O)Nc1cccc(-c2cnc3[nH]cc(-c4cc(N)cc(C(=O)O)c4)c3c2)c1 | 1080 nM
NCCCCc1c(-c2ccc(Cl)c(Cl)c2)[nH]c2ccc(Cl)cc12 | 910 nM
COc1cccc(/C=C/C(=O)NC2CCC(CN3CCC(c4c[nH]c5ccccc45)CC3)CC2)c1 (centres undefined) | 830 nM and 770 nM
CCCC(CNCc1ccc(Cl)c(C(F)(F)F)c1)CNc1nc2ccncc2[nH]1 (centres undefined) | 290 nM
CCNc1cc(C(=O)N[C@@H](Cc2ccccc2)[C@H](O)CNCc2cc(OC)cc(OC)c2)cc(N2CCCS2(=O)=O)c1 | 40 nM
Cc1ccccc1CCNC(=O)c1cnc(N2CCN(c3ccncc3)CC2)c(Cl)c1 | 1060 nM
CCCCCCN1CCCN(Cc2ccc(C(=O)Nc3ccc(C(C)(C)C)cc3)cc2)CC1 | 740 nM
O=C(NC1CC1)c1ccc(N2CCN(Cc3ccc(Cl)cc3)CC2)nc1 | 1340 nM
COc1cc(COc2c(C)nc(N)nc2N)cc(OC)c1OC | 330 nM
O=C(NC12CC3CC(CC(C3)C1)C2)C(=O)c1c[nH]c2ccccc12 | 230 nM
CN1CCCN(Cc2cccc(-c3cccc(NS(=O)(=O)c4cccc5cccnc45)c3)c2)CC1 | 760 nM
COc1ccc(OC)c(-c2cccc(-c3cccc(NC(=O)c4ccc([N+](=O)[O-])o4)c3)n2)c1 | 370 nM
c1cc(-c2ccc(CNCCCN3CCOCC3)cc2)cc(-c2nc3ccccc3[nH]2)c1 | 210 nM
COc1cc(NC(=O)/C=C/c2ccccc2OC(F)(F)F)cc(OCCN2CCC(O)(c3ccccc3)CC2)c1 | 290 nM
CN1CCN(c2ccc(-c3cccc(NC(=O)c4cccc([N+](=O)[O-])c4)c3)nn2)CC1 | 530 nM
CC(=O)c1c(CC(=O)O)c2ccccc2n1O | 740 nM
Cc1cc(Nc2ccccc2)nc(Nc2ccccc2C)n1 | 1040 nM
Cc1cccc2[nH]c(-c3ccc(-c4ccc(NC(=O)NCc5ccccc5)cc4)s3)nc12 | 770 nM
COc1cc(CCN(C)Cc2ccc(OC)c(OC)c2)ccc1NC(=O)c1cccc2c(=O)c3cccc(F)c3[nH]c12 | 200 nM
CC(C)c1cc2c(cc1O)C(Cc1ccccc1Cl)N(C)CC2 (centres undefined) | 730 nM
CC[C@H]1CN2CC[C@H]1C[C@@H]2[C@@H](OC(=O)c1ccc(Cl)cc1)c1ccnc2ccc(OC)cc12 | 920 nM

SMILES | IC50
CC(C)c1ccc(CN2CCCCC(NC(=O)c3cc(-c4cccc(F)c4)cs3)C2)cc1 (centres undefined) | 940 nM
CNC(=O)c1ccc2nc(C3CC3)n(CC3CCN(S(=O)(=O)c4cccc(Cl)c4)CC3)c2c1 | 650 nM
COc1cc2c(cc1NS(=O)(=O)c1ccc(OCc3ccc(Br)cc3)cc1)CCN(C1CCC1)CC2 | 840 nM
CO/C(=C\C=C\c1cc2cc(Cl)c(Cl)cc2[nH]1)C(=O)NCCCN1CCN(c2cccc(O)c2)CC1 | 580 nM
Cc1ccc(Cc2cccc3nc(N)nc(N)c23)cc1 | 1150 nM
CCCN1CCN(CCCCNc2c3ccccc3nc3ccccc23)CC1 | 410 nM
CC(C)c1cc(N)c2cc(NC(=O)COCC(=O)Nc3ccc4nc(C(C)C)cc(N)c4c3)ccc2n1 | 220 nM
Cc1c(F)cc(C(=O)NC2CC2)cc1-c1ccc2c(cnn2S(=O)(=O)c2ccc(Cl)s2)c1 | 390 nM
c1ccc(N2CCN(c3cc(-c4cccnc4)nc(-c4ccncc4)n3)CC2)nc1 | 760 nM
CC(=O)N(Cc1ccccc1-c1cccc(CNCCc2ccccc2)c1)C1CCN(Cc2ccccc2)CC1 | 1100 nM
O=C(NC1CCC(N2CCC(c3ccccc3C(F)(F)F)CC2)CC1)c1cc2ccccc2[nH]1 (centres undefined) | 520 nM
Nc1ncc(-c2ccc3nccc(-c4ccncc4)c3c2)cc1S(=O)(=O)N1CCOCC1 | 870 nM
O=c1cc(NCCCNC2CCCc3c2cc(Cl)c(Cl)c3Cl)[nH]c2ccccc12 (centres undefined) | 280 nM
CCNc1cc(C(=O)N[C@@H](Cc2ccccc2)[C@H](O)CNC(C)Cc2cccc(Cl)c2)cc(N2CCCCS2(=O)=O)c1 (some centres undefined) | 500 nM
CCOC(=O)c1cc(=O)c2ccc(OCC#N)cc2o1 | 1030 nM
CCc1cc2c(Sc3nnc(N)s3)ncnc2s1 | 660 nM
CC(C)CCNCc1ccc(OCc2cccc(COc3ccc(CNCCC(C)C)cc3I)c2)c(I)c1 | 450 nM
CC(Cc1ccc(SCCSc2ccccc2)cc1)NCC(O)c1cccc(Cl)c1 (centres undefined) | 370 nM
CCc1ccc(CN2CCCCC(NC(=O)c3cc(-c4ccccc4F)cs3)C2)cc1 (centres undefined) | 1160 nM
COc1ccc(Cc2c(Cl)nc3nc(N)nc(N)c3c2C)c(OC)c1OC | 720 nM
c1ccc(C23N=C(Nc4nc5ccccc5[nH]4)NC2(c2ccccc2)NC(Nc2nc4ccccc4[nH]2)=N3)cc1 (centres undefined) | 280 nM
CC[C@H]1CN2CC[C@@H]1C[C@H]2[C@H](O)c1cc(-c2c(C)noc2C)nc2ccc(OC)cc12 | 30 nM
Cc1cc2cc(-c3ccc(CN)cc3)ccc2nc1N | 1130 nM
Cn1c(/C=C/C(=O)NC2CCC(CCN3CCc4ccc(C#N)cc4CC3)CC2)cc2ccccc21 (centres undefined) | 730 nM
